How the values were obtained:
[1] = DRUGMATRIX: Sodium/nucleoside co-transporter radioligand binding (ligand: nitrobenzylthioinosine); type: cell membranes, Cavia porcellus, Dunkin-Hartley, Cerebral cortex, Membrane; conditions: Not Active = under 50% inhibition at 10 µM
Adenosine receptor A1 = target: T1, Adenosine receptor A1 (Homo sapiens, UniProt P30542); type: cell membranes, CHO, Membrane; conditions: cho;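 also: radioligand binding assay at the adenosine A1 receptor, with DPCPX serving as the labelled ligand; in other assays of this panel Not Active means under 50% inhibition at 10 µM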
T1 sequence (P30542 whole entry): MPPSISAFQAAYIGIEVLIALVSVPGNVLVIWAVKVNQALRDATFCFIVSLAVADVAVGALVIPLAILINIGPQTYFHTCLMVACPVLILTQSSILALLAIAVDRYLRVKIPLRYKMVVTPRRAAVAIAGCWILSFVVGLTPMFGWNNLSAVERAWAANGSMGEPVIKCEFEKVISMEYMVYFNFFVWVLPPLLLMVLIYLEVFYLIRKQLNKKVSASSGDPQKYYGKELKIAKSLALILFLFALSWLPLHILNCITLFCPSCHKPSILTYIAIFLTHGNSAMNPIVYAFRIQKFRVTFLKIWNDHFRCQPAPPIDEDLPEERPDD

Mu-type opioid receptor = Mu-type opioid receptor (Homo sapiens, UniProt P35372); assay: DRUGMATRIX: Opiate mu (OP3, MOP) radioligand binding (ligand: [3H] Diprenorphine); type: cell membranes, CHO-K1, Membrane; conditions: Not Active = under 50% inhibition at 10 µM
[2] = target: T2, Polyunsaturated fatty acid lipoxygenase ALOX15 (Oryctolagus cuniculus, UniProt P12530); assay: biochemical; type: tissue-based, Reticulocytes;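 also: inhibition of 15-lipoxygenase enzyme activity measured with linoleic acid as the substrate; in other assays of this panel Not Active means under 50% inhibition at 10 µM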
T2 sequence (P12530 whole entry): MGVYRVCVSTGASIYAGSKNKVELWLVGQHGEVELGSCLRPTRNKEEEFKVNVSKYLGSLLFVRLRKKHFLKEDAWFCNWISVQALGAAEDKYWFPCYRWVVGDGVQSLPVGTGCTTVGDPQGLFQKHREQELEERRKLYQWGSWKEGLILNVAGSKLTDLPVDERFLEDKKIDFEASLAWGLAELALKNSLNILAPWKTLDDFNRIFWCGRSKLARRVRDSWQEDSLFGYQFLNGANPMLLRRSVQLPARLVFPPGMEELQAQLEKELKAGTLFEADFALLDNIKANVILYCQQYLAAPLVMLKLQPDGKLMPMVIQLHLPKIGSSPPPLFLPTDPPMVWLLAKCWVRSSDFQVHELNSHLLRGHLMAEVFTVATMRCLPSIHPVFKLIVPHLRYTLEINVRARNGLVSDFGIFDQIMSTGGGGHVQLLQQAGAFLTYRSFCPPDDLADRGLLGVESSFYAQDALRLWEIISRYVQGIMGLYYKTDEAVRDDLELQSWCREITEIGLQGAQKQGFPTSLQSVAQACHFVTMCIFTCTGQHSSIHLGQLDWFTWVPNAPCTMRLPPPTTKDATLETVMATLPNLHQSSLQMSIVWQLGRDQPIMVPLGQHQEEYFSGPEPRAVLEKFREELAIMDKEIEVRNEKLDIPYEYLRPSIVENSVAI

[3] = target: T3, C-C chemokine receptor type 4 (Homo sapiens, UniProt P51679); type: cell membranes, Membrane; conditions: chem-1; also: in other assays of this panel Not Active means under 50% inhibition at 10 µM
T3 sequence (P51679 whole entry): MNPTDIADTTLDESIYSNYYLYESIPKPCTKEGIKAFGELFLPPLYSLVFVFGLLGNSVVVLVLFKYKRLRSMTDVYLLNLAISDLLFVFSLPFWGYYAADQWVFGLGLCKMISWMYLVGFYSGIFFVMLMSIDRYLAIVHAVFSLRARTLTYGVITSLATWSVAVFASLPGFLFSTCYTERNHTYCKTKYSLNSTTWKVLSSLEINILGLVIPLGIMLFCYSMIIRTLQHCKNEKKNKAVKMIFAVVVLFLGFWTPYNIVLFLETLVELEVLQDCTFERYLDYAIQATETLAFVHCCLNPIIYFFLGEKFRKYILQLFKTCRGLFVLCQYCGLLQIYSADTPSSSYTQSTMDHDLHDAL

D(1A) dopamine receptor = D(1A) dopamine receptor (Homo sapiens, UniProt P21728); assay: DRUGMATRIX: Dopamine D1 radioligand binding (ligand: [3H] SCH-23390); type: cell membranes, CHO, Membrane; conditions: Not Active = under 50% inhibition at 10 µM
Chain of D(1A) dopamine receptor (P21728 whole entry): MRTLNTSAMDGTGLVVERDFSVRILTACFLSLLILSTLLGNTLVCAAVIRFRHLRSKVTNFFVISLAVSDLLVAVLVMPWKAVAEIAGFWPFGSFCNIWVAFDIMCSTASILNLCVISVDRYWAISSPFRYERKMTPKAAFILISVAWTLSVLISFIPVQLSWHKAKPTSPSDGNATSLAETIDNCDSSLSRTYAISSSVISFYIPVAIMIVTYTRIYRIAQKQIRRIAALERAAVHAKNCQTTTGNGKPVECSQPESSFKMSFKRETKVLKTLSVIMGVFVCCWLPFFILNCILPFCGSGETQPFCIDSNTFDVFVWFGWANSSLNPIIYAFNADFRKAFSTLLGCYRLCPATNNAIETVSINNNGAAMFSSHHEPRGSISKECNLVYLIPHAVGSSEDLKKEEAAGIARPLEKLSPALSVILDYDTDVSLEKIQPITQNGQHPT

Chain of Mu-type opioid receptor (P35372 whole entry): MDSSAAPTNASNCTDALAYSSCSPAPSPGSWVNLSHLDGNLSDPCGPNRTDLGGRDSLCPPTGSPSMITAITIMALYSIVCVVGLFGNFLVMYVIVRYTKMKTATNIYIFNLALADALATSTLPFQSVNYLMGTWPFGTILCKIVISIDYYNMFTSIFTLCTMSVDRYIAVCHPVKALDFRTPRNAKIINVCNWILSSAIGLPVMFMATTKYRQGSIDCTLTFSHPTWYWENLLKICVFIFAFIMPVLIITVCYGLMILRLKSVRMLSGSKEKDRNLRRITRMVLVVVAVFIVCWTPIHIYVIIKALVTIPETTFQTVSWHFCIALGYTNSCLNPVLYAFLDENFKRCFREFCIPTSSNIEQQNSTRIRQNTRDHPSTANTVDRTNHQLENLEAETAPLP

| SMILES | IC50 [1] | Ki [1] | IC50 (Adenosine receptor A1) | IC50 (Mu-type opioid receptor; cho-k1) | IC50 ([2]; reticulocytes) | IC50 [3] | IC50 (D(1A) dopamine receptor; cho) | IC50 ([2]; read-out: IC50) | Ki (Mu-type opioid receptor) | IC50 (Mu-type opioid receptor; read-out: IC50) | IC50 (D(1A) dopamine receptor; read-out: IC50) | Ki (D(1A) dopamine receptor; read-out: Ki) |
| --- | --- | --- | --- | --- | --- | --- | --- | --- | --- | --- | --- | --- |
| CCOc1nc2cccc(C(=O)O)c2n1Cc1ccc(-c2ccccc2-c2nnn[nH]2)cc1 | Not Active | Not Active | Not Active | Not Active | Not Active | Not Active | Not Active |  |  |  |  |  |
| O=C(O)CCCc1cccs1 | Not Active | Not Active | Not Active | Not Active | Not Active | Not Active | Not Active |  |  |  |  |  |
| COc1ccccc1N | Not Active | Not Active | Not Active | Not Active |  | Not Active | Not Active | 2.05 µM |  |  |  |  |
| O=C(c1ccccc1F)N1CCC(Cc2ccccc2)CC1 | Not Active | Not Active | Not Active | Not Active | Not Active | Not Active | Not Active |  |  |  |  |  |
| Cc1c(O)cccc1C(=O)N[C@@H](CSc1ccccc1)[C@H](O)CN1C[C@H]2CCCC[C@H]2C[C@H]1C(=O)NC(C)(C)C | Not Active | Not Active | Not Active |  |  | Not Active |  | 13.8 µM | 5.86 µM | 14.4 µM |  |  |
| CC(O)COC[C@H]1O[C@@H]2O[C@H]3[C@H](O)[C@@H](O)[C@@H](O[C@H]4[C@H](O)[C@@H](O)[C@@H](O[C@H]5[C@H](O)[C@@H](O)[C@@H](O[C@H]6[C@H](O)[C@@H](O)[C@@H](O[C@H]7[C@H](O)[C@@H](O)[C@@H](O[C@H]8[C@H](O)[C@@H](O)[C@@H](O[C@H]1[C@H](O)[C@H]2O)O[C@@H]8COCC(C)O)O[C@@H]7COCC(C)O)O[C@@H]6COCC(C)O)O[C@@H]5COCC(C)O)O[C@@H]4COCC(C)O)O[C@@H]3COCC(C)O (stereo partly drawn) [2-HYDROXYPROPYL-BETA-CYCLODEXTRIN] | Not Active | Not Active | Not Active | Not Active | Not Active | Not Active | Not Active |  |  |  |  |  |
| NC(=O)c1cccc(N)c1 [3-AMINOBENZAMIDE] | Not Active | Not Active | Not Active | Not Active | Not Active | Not Active | Not Active |  |  |  |  |  |
| C[C@H]1O[C@H](O[C@H]2[C@H](O)[C@@H](O)[C@@H](O[C@H]3[C@H](O)[C@@H](O)C(O)O[C@@H]3CO)O[C@@H]2CO)[C@H](O)[C@@H](O)[C@@H]1N[C@H]1C=C(CO)[C@@H](O)[C@H](O)[C@H]1O (some centres not stated) [ACARBOSE] | Not Active | Not Active | Not Active | Not Active | Not Active | Not Active | Not Active |  |  |  |  |  |
| CC[C@H]1[C@@H]2C[C@H]3[C@@H]4N(C)c5ccccc5[C@]45C[C@@H]([C@@H]2[C@H]5O)N3[C@@H]1O [AJMALINE] | Not Active | Not Active | Not Active | Not Active | Not Active | Not Active | Not Active |  |  |  |  |  |
| NC12CC3CC(CC(C3)C1)C2 [AMANTADINE] | Not Active | Not Active | Not Active | Not Active | Not Active | Not Active | Not Active |  |  |  |  |  |
| NCCCNCCSP(=O)(O)O [AMIFOSTINE] | Not Active | Not Active | Not Active | Not Active | Not Active | Not Active | Not Active |  |  |  |  |  |
| CN(C)CCC=C1c2ccccc2CCc2ccccc21 [AMITRIPTYLINE] | Not Active | Not Active | Not Active | Not Active | Not Active | Not Active |  |  |  |  | 0.355 µM | 0.178 µM |
| CC(=O)Oc1ccccc1C(=O)O [ASPIRIN] | Not Active | Not Active | Not Active | Not Active | Not Active | Not Active | Not Active |  |  |  |  |  |

— ChEMBL document CHEMBL1909046, “DrugMatrix in vitro pharmacology data”
